Results: patent US20140228302A1, “COMPOUNDS, COMPOSITIONS AND METHODS FOR TREATING OR PREVENTING HYPOXIC OR ISCHEMIC INJURY” (FRED HUTCHINSON CANCER RESEARCH CENTER, priority 2010, published 2014)
Converted amounts (≈) assume the structure as drawn. “Also recorded” adds a separate entry of the source. Read-outs that look alike come from different tables or passages of the source. Each block holds one molecule with its values, some of them ahead of it.

Experiments:
[1] = Comparative solubility data (Table 1); format: physicochemical
Source text: (§1) This allows formulation in aqueous solution at high concentration, which is important for preparing parenteral dosage forms.

[2] = Comparative vehicle data (Table 2); format: physicochemical
Source text: as §1

mouse = conditions: cited from earlier work
rat = conditions: cited from earlier work
dog = conditions: cited from earlier work
mammals = conditions: many mammals; cited from earlier work
[3] = Generation of biologically available sulfide in whole rat blood and inhibition by NAEM; format: in vitro ADME
Experimental: The chemical nature of biologically available sulfide in blood was probed with the thiol-reactive reagent N-aminoethyl-maleimide (NAEM) which binds to free thiols and perthiols on proteins and blocks them from participating further in thiol-mediated chemical reactions. Biologically available sulfide was generated in blood by adding 1.3 mM bis-N-acetyl-cystine-trisulfide to 2 mL of whole rat blood. Biologically available sulfide was measured by derivatization with mono-bromo-bimane and levels of bis-N-acetyl-cystine-trisulfide in blood were followed by LC/MS/MS.

[4] = Stability of the dosing solution; format: physicochemical; conditions: 30 mg/mL dosing solution
Experimental: In one more exemplary embodiment of the methods of making the pharmaceutical compositions of the invention, a dosing solution of bis-N-acetyl-cystine-trisulfide at 30 mg/mL is prepared by weighing the desired amount of solid bis-N-acetyl-cystine-trisulfide into a clear glass vial and chilling the vial to −20° C. The solvent is prepared by chilling a suitable amount of a mixture of 1 volumes of 0.5N NaOH in saline and 2 volumes of above vehicle solution to between 0° C. and 4° C. One mL of this solvent is added to the vial per 30 mg of bis-N-acetyl-cystine-trisulfide contained and the resulting suspension mixed immediately until the solid is fully dissolved. This dosing solution of bis-N-acetyl-cystine-trisulfide is stable for at least 1.5 hours at room temperature and for at least 24 hours when frozen at −20° C. The dosing solution is warmed to room temperature prior to intravenous injection.
Method: Vehicle solution was prepared by mixing 1 volume of solution B, 4 volumes of solution A, and 36 volumes of saline. The pH of the resulting vehicle solution is about 6. To prepare a bis-N-acetyl-cysteine-trisulfide dosing solution at a concentration of 30 mg/ml and about pH 6, the appropriate amount of bis-N-acetyl-cystine-trisulfide was weighed into a clear glass vial and cooled to −20° C. Solutions B and A were mixed at a 1:2 volume ratio, vortexed, and cooled to 4° C. on ice. […]

[5] = Pharmacokinetics of biologically available blood sulfide and plasma thiosulfate after intravenous administration; format: in vivo, Sprague Dawley rats; conditions: rat, IV bolus 16 or 32 mg/kg
Experimental: Pharmacokinetic experiments were conducted with groups of two to four animals consisting of 9-10 week old, male Sprague Dawley rats, 276-300 grams (Charles River Laboratories, Wilmington, Mass.) with a jugular vein catheter and a femoral vein catheter. Animals were allowed to acclimate in a temperature and humidity controlled environment for 1-3 days prior to the commencement of experimental procedures. Food and water were provided ad libitum.
A baseline blood sample (˜0.4 mL) was collected from each rat through the jugular vein cannula into a heparin-coated syringe (1 mL volume) fitted with a 23G Luer stub adapter. After sampling, the blood volume was replenished by slowly injecting 0.4 mL of a solution of 50 u/mL heparin in saline through the jugular vein cannula.

[6] = Free sulfide in blood measured with sulfide-specific electrode in vena cava; format: in vivo, CD rats; conditions: rat, 20 mg/kg IV over 1 min, monitored 30 min
Source text: Male CD rats (350-450 g, Charles River Laboratories) were anesthetized by IV pentobarbital injection and the right jugular vein carefully exposed and dissected away from the surrounding tissue. An amperometric hydrogen sulfide sensor (World Precision Instruments, Sarasota, Fla., Cat. #ISO-H2S-2) was inserted into the jugular and advanced into the vena cava. Sensor current was monitored using a Powerlab 8/30 (ADInstruments, Colorado Springs, Colo.). Once a stable baseline current was attained, the animals received either vehicle (pH matched saline) or bis-N-acetyl-cystine-trisulfide (20 mg/kg) administered over 1 min via a left femoral vein catheter, and sensor current was monitored over 30 min. Changes in current were calibrated against an IK-1001 standard curve generated with the sensor in deoxygenated 50 mM HEPES, 150 mM NaCl, 1 mM DTPA at 37° C. and pH 7.4.

[7] = Maximum tolerated dose, intravenous injection; conditions: mouse, in vivo; mice, intravenous injections
Source text: The absence of free sulfide is reflected in the low toxicity of the sulfide-releasing compounds.

[8] = system: livers of mice, injury by dGal/LPS; experiment: Protection from endotoxin (dGal/LPS)-induced liver damage; format: in vivo, C57BL/6 mice
Experimental: Male C57BL/6 mice, (22 to 24 g, Charles River Laboratories) were acclimated in a temperature and humidity controlled environment for 1-3 days prior to commencement of the experimental procedures. All cages were placed on water heating pads set at 30° C. Liver injury was caused by injecting mice intraperitoneally with 800 mg/kg d-Galactosamine (dGal), followed 30 min later by 100 μg/kg lipopolysaccharide (LPS) (FIG. 4) or with 1000 mg/kg dGal, followed 30 min later by 120 μg/kg LPS (FIG. 5). Bis-N-acetyl-cystine-trisulfide at 20 mg/kg (FIG. 4) or 40 and 60 mg/kg (FIG. 5), or vehicle were injected intraperitoneally 30 min later. Blood was collected by cardiac puncture under isoflurane anesthesia five hours after LPS injection. Serum was prepared and markers of liver injury, alanine aminotransferase (ALT) and aspartate aminotransferase (AST) measured.

[9] = system: livers of mice, ischemia/reperfusion (I/R) injury; experiment: Protection from ischemia/reperfusion-induced liver damage; format: in vivo, C57BL/6 mice; conditions: last 5 min of 45 min occlusion, ALT five hours after reperfusion
Experimental: C57BL/6 mice were anesthetized with a ketamine/xylazine combination given via intraperitoneal injection. A midline laparotomy was performed to expose the viscera and the stomach and intestines were moved laterally to allow for unimpeded visualization of the liver. A micoaneurysm clip was applied to the hepatic artery and portal vein to create a partial liver ischemia encompassing the medial and left lateral lobes (approximately 70% of the liver). […] The aneurysm clips were removed at 45 minutes to restore hepatic blood flow which was confirmed visually. The abdominal incision was closed using wound clips and animals were recovered in a warmed chamber with 100% oxygen. Five hours after reperfusion, blood was collected by cardiac puncture to measure serum alanine aminotransferase (ALT).

[10] = 17% HPBCD, aqueous with cosolvent or surfactant or cyclodextrin, read-out: Solubility 17% HPBCD
[11] = 20% PEG400, aqueous with cosolvent or surfactant or cyclodextrin, read-out: Solubility 20% PEG400
[12] = water, read-out: Solubility Water
[13] = rat blood pretreated with 20 mM NAEM for 30 min

- solubility [1, 10]: > 6000 µg/mL
- solubility [1, 11]: 110 µg/mL (≈ 416 µM)
- solubility [1, 12]: 37 µg/mL (≈ 140 µM)
Structure (SMILES): OCCSSSSCc1ccccc1

- solubility [1, 11]: 310 µg/mL (≈ 1060 µM)
- solubility [1, 12]: 220 µg/mL (≈ 750 µM)
Structure (SMILES): c1ccc(CCSSSCc2cccnc2)cc1

- solubility [1, 11]: 240 µg/mL (≈ 724 µM)
- solubility [1, 12]: 100 µg/mL (≈ 302 µM)
Structure (SMILES): COC(=O)[C@H](CSSSCc1ccccc1)NC(C)=O

- solubility [1, 10]: 6600 µg/mL (≈ 22400 µM)
- solubility [1, 11]: 230 µg/mL (≈ 781 µM)
- solubility [1, 12]: 150 µg/mL (≈ 509 µM)
Structure (SMILES): OCC(O)CSSSSCc1ccccc1 (stereo not shown)

- solubility ([1]; aqueous with cosolvent or surfactant or cyclodextrin, 45% HPBCD (stated in the cell of the 17% HPBCD column), read-out: Solubility 45% HPBCD): > 20000 µg/mL
- Solubility Water ([1]; water): poor
Structure (SMILES): O=C(O)CCSSSCCC(=O)O

- solubility [1, 10]: 18000 µg/mL (≈ 54300 µM)
- Solubility Water ([1]; water): poor
Structure (SMILES): CC(=O)N[C@@H](CSSSCCc1ccccc1)C(=O)O

Structure (SMILES): N[C@@H](CSSSC[C@H](N)C(=O)O)C(=O)O
- Solubility in words ([1]; water, 90% PEG400, 45% HPBCD, 45% Captisol, 2% Tween 80, 25% cremophor): Not soluble in water, 90% PEG400, 45% HPBCD, 45% Captisol, 2% Tween 80, 25% cremophor

Structure (SMILES): C=CCSSCC=C [Di-allyl di-sulfide]
- Preferred Vehicle [2]: 40% HPBCD/0.1% citric acid

Structure (SMILES): CC(=O)N[C@@H](CS)C(=O)O [N-acetyl-cysteine]
- LD50 IV (mouse): 3,800 mg/kg
- LD50 IV (rat): 1,140 mg/kg
- LD50 IV (dog): 700 mg/kg
- intravenous LD50 (mammals): ≥ 300 mg/kg

- Time until consumed in blood ([3]; 20 mM NAEM, preincubation with rat blood): ≤ 1 min
Structure (SMILES): NCCN1C(=O)C=CC1=O [NAEM, N-aminoethyl-maleimide]
- Effect on consumption of bis-N-acetyl-cystine-trisulfide [3, 13]: reduced consumption
- Effect on production of biologically available sulfide [3, 13]: almost completely blocked
- Effect on production of biologically available sulfide ([3]; rat blood pretreated with 20 mM NAEM for 30 min, listed as N-aminoethyl-maleimide (NAEM)): reduces the generation of biologically available sulfide

Structure (SMILES): CC(=O)N[C@@H](CSSSC[C@H](NC(C)=O)C(=O)O)C(=O)O [bis-N-acetyl-cystine-trisulfide, (R,R′)-3,3′-trithiobis-2-acetamidopropanoic acid]
- Water solubility compared to other polysulfides ([1]; water): unexpectedly high water solubility
- Stability of dosing solution at room temperature ([4]; about pH 6, room temperature): at least 1.5 hours
- Stability of dosing solution frozen ([4]; frozen at −20° C.): at least 24 hours
- Plasma thiosulfate ([5]; ion chromatography): paralleled blood levels of biologically available sulfide; also recorded: elevation of plasma thiosulfate
- Biologically available sulfide in blood ([5]; mono-bromo-bimane derivatization): dose-dependent elevation
- Free sulfide in blood [6]: No free sulfide was detectable; also recorded: does not lead to any measurable increase
- MTD [7]: ~500 mg/kg
- Liver injury (serum ALT and AST) ([8]; 20 mg/kg IP bolus 30 min after LPS, 800 mg/kg dGal, 100 μg/kg LPS, vs vehicle): reduced liver injury
- Endotoxin-induced liver injury (ALT, AST) ([8]; 20, 40 and 60 mg/kg IP, blood five hours after LPS (FIGS. 4 and 5)): protected from endotoxin-induced liver injury
- Liver injury (serum ALT) ([8]; 40 and 60 mg/kg IP bolus 30 min after LPS, 1000 mg/kg dGal, 120 μg/kg LPS, vs vehicle): reduced liver injury
- Liver ischemia/reperfusion injury (ALT) ([9]; intravenous bolus 5, 20 or 60 mg/kg): protection of the livers; also recorded: protected the liver from ischemia/reperfusion injury
- Time until consumed in blood ([3]; 1.3 mM in 2 mL whole rat blood, LC/MS/MS): ≤ 5 min
- Generation of biologically available sulfide in blood ([3]; 1.3 mM in whole rat blood, mono-bromo-bimane derivatization): generating biologically available sulfide
- Preferred Vehicle [2]: aqueous

- Water solubility compared to other polysulfides ([1]; water): unexpectedly high water solubility
Structure (SMILES): CS(=O)(=O)N[C@@H](CSSSC[C@H](NS(C)(=O)=O)C(=O)O)C(=O)O [bis-N-methylsulfonyl-cystine-trisulfide, (R,R′)-3,3′-trithiobis-2-(methylsulfonylamido)propanoic acid]
- Liver ischemia/reperfusion injury (ALT) ([9]; intravenous bolus 2, 5 or 20 mg/kg): protected the liver from ischemia/reperfusion injury
- Liver ischemia/reperfusion injury (ALT) ([9]; intravenous bolus 2, 5 or 20 mg/kg, listed as bis-N-methylsulfonamide-cystine-trisulfide): protection of the livers

Structure (SMILES): CC(=O)N[C@@H](CSSSC[C@H](NC(C)=O)C(=O)O)C(=O)O [drawing 49]
- solubility [1, 12]: > 40000 µg/mL

- solubility [1, 12]: > 80000 µg/mL
Structure (SMILES): CS(=O)(=O)N[C@@H](CSSSC[C@H](NS(C)(=O)=O)C(=O)O)C(=O)O [drawing 50]
